The test system of experiment [1] is BMAA_159_min (DNA, aptamer) GGCTCGGCCCTGGGTGAGGGGCGCAGTGGGGTGTAGCCAG
Briefly: 1H NMR titration. The note with it: 100 mM NaCl, 2 mM MgCl2; 20 mM sodium phosphate, 10% D2O, 298 K; qualitative.

Experiment [2] concerns BMAA_172 (DNA, aptamer) TGTACCGTCTGAGCGATTCGTACGGGGGCCAGTGAATGAGTTGGGGTGGTAATGGGGAGCCAGTCAGTGTTAAGGAGTGC
Briefly: SYBR Green I fluorescence displacement. The note with it: 100 mM NaCl, 5 mM MgCl2, 20 mM Tris pH 7.6, room temperature, four of five candidates bind, not named.

Experiment [3] deals with BMAA_159_min (DNA, aptamer) GGCTCGGCCCTGGGTGAGGGGCGCAGTGGGGTGTAGCCAG
Kind of experiment: circular dichroism. The note with it: 100 mM NaCl (100 mM KCl in legend), 5 mM MgCl2; 20 mM Tris pH 7.6, room temperature; qualitative. A general note: Circular dichroism is widely used to follow secondary structure.

In experiment [4] the test system is BMAA_159 (DNA, aptamer) TGTACCGTCTGAGCGATTCGTACGGCTCGGCCCTGGGTGAGGGGCGCAGTGGGGTGTAGCCAGTCAGTGTTAAGGAGTGC
Kind of experiment: SYBR Green I fluorescence displacement. The note with it: 100 mM NaCl, 5 mM MgCl2; 20 mM Tris pH 7.6, room temperature; SYBR Green I displaced; one-site fit.

For experiment [5], the system named is BMAA_165 (DNA, aptamer) TGTACCGTCTGAGCGATTCGTACGGGCGTGTGTGGGAGGGGGCACTTCGTCGGGGTGAGCCAGTCAGTGTTAAGGAGTGC
Kind of experiment: SYBR Green I fluorescence displacement. The note with it: 100 mM NaCl, 5 mM MgCl2; 20 mM Tris pH 7.6, room temperature; SYBR Green I displaced; one-site fit.

For experiment [6], the system named is BMAA_165_min (biosensing) (DNA, aptamer) GGGCGTGTGTGGGAGGGGGCACTTCGTCGGGGTG
Briefly: electrochemical aptamer sensor (SWV, EIS). The note with it: 4 mM NaCl, 0.2 mM MgCl2.

Experiment [7] relates to BMAA_38 (DNA, aptamer) TGTACCGTCTGAGCGATTCGTACGGGGGTTCACGCTCGAGGGGGCCACAGGGGGAGTAGCCAGTCAGTGTTAAGGAGTGC
Briefly: SYBR Green I fluorescence displacement. The note with it: 100 mM NaCl, 5 mM MgCl2, 20 mM Tris pH 7.6, room temperature, four of five candidates bind, not named.

Experiment [8] deals with BMAA_165_scrambled (DNA, aptamer) TGTACCGTCTGAGCGATTCGTACAGTCGTTGGGGGGGGGGGTGAGCGTTGCGCGCGTAGCCAGTCAGTGTTAAGGAGTGC
Briefly: SYBR Green I fluorescence displacement. The note with it: 100 mM NaCl, 5 mM MgCl2; 20 mM Tris pH 7.6, room temperature; SYBR Green I displaced; up to 25 μM BMAA.

Experiment [9] deals with BMAA_165_min (DNA, aptamer) GGGCGTGTGTGGGAGGGGGCACTTCGTCGGGGTGAGCCAG
Briefly: 1H NMR titration. The note with it: 100 mM NaCl, 2 mM MgCl2; 20 mM sodium phosphate, 10% D2O, 298 K; qualitative.

In experiment [10] the test system is BMAA_159_min (FAM-labeled) (DNA, aptamer) GGCTCGGCCCTGGGTGAGGGGCGCAGTGGGGTGTAGCCAG
Briefly: BMAA-conjugated plate fluorescence assay. The note with it: 100 mM NaCl, 5 mM MgCl2, 20 mM Tris pH 7.6, room temperature, immobilised compound on streptavidin plate.

In experiment [11] the test system is BMAA_165_min (FAM-labeled) (DNA, aptamer) GGGCGTGTGTGGGAGGGGGCACTTCGTCGGGGTGAGCCAG
Briefly: BMAA-conjugated plate fluorescence assay. The note with it: 100 mM NaCl, 5 mM MgCl2, 20 mM Tris pH 7.6, room temperature, immobilised compound on streptavidin plate.

Structures are written as SMILES.

The term Kd denotes the equilibrium constant for the complex coming apart. A higher Kd goes with weaker binding. As for `CNC[C@H](N)C(=O)O`, the binding result is recorded as “yes” in [1]; “yes” in experiment [3]; “yes” in experiment [6]; “no” in experiment [8]; “yes” in experiment [9]. The “apparent Kd” value in [2] is reported as 6.50 (5.23-9.56) uM; in [7] it was 18.6 (3.08-102) uM. In addition, the Kd in [4] turned out to be 2.2 ± 0.1 µM; in experiment [5], 0.32 ± 0.02 µM.
As for `CNCC(NC(=O)CCOCCOCCOCCOCCNC(=O)CCCC[C@@H]1SC[C@@H]2NC(=O)N[C@@H]21)C(=O)O` (some centres unmarked), the “apparent Kd” value in experiment [10] is 6 ± 1 µM; in [11], 0.63 ± 0.02 µM.

The record behind these values is article PMC11046380 (2024).
